Data on 2 molecules can be found in patent publication US9670259B2, “Method of inhibiting angiogenesis using inhibitors of G-protein-coupled receptor kinase interacting protein-1 (GIT1)” (University of Rochester, priority 2013, dated 2017).

Holding throughout (type): cell-based, human
The subject of data set [1] is Notch1. Put plainly: Notch1 expression and cleavage (N1-ICD) after GIT1 depletion with siRNA in HUVECs. To be noted: siRNA treated. As to the method:
(§1) Human umbilical vein endothelial cells (HUVECs) were isolated and grown in Medium 200 with low serum growth supplement (Cascade Biologics, Inc., Portland, Oreg.) as described previously (Carmeliet et al., Nature 436:193 (2005), which is hereby incorporated by reference in its entirety). GIT1 siRNA ([…]) (SEQ ID NO: 21) and control non-silencing siRNA([…]) (SEQ ID NO: 22) were designed and synthesized (Ambion) and Dll4 siRNA was purchased (Santa Cruz). The siRNA were transfected at 100 nM for 48 h as previously described by our laboratory (Yin et al., Mol. Cell Biol., 24:875 (2004), which is hereby incorporated by reference in its entirety). HEK293 cells were cultured in Dulbecco's modified Eagle's medium supplemented with 10% fetal bovine serum (FBS), penicillin, and streptomycin at 37° C. in 5% CO2. HEK293T cells were transfected by Lipofectamine/plus (Invitrogen).
For immunoblotting, cells were lysed in RIPA buffer (150 mM NaCl, 1% Nonidet P-40, […], 0.1% SDS, 50 mM Tris-HCl, pH 8.0). Protein concentrations in the lysates were determined. The protein samples were separated by SDS-PAGE, transferred to nitrocellulose membranes, and incubated with appropriate primary antibodies. After incubating with fluorescence-conjugated secondary antibodies, immunoreactive proteins were visualized by an Odyssey infrared imaging system (LI-COR Biotechnology, Nebraska). […]

The test system of data set [2] is Hey1. Briefly: Hey1 mRNA (qRT-PCR) and protein (western blot) after GIT1 depletion with siRNA in HUVECs. To be noted: compared to control siRNA. The protocol:
as §1, with “HEK293 cells were cultured in Dulbecco's modified Eagle's medium supplemented with 10% fetal bovine serum (FBS), penicillin, and streptomycin at 37° C. in 5% CO2. HEK293T cells were transfected by Lipofectamine/plus (Invitrogen).” left out
(§2) For immunoblotting, cells were lysed in RIPA buffer (150 mM NaCl, 1% Nonidet P-40, […], 0.1% SDS, 50 mM Tris-HCl, pH 8.0). Protein concentrations in the lysates were determined. […] After incubating with fluorescence-conjugated secondary antibodies, immunoreactive proteins were visualized by an Odyssey infrared imaging system (LI-COR Biotechnology, Nebraska). […]
(§3) Total RNA from retinas and lungs of GIT1 WT and KO mice or HUVECs was obtained using TRIzol reagent (Invitrogen) according to the manufacturer's protocol. […] Target genes mRNA expression and mitochondrial DNA content were determined by qRT-PCR (Applied Biosystems). […]
For orientation: Quantitative PCR measures a nucleic acid by following its amplification.

In data set [3] the test system is Dll4. Put plainly: Dll4 mRNA (qRT-PCR) and protein (western blot) after GIT1 depletion with siRNA in HUVECs. To be noted: siRNA 48 h, compared to control siRNA. The protocol:
as §1, with “HEK293 cells were cultured in Dulbecco's modified Eagle's medium supplemented with 10% fetal bovine serum (FBS), penicillin, and streptomycin at 37° C. in 5% CO2. HEK293T cells were transfected by Lipofectamine/plus (Invitrogen).” left out
as §2, §3

In data set [4] the test system is PLCγ. Briefly: VEGF induced PLCγ activation in HUVEC infected with SHD-Flag lentivirus. To be noted: lentivirus overexpression, VEGF 10 ng/mL. The protocol: (§4) In an effort to identify the potential GIT1 inhibitor peptides, a flag-tagged SHD domain of GIT1 (SHD-Flag) was cloned into a lentivirus vector.
(§5) HUVECs were seeded on 6 well plate at 80% confluence. The next day, cells were infected with control and SHD-Flag containing Lentivirus with Polybrene. After 1 day, infection media was changed with fresh complete M200 media (containing 5% FBS+1% Penicillin-Streptomycin and 2% LSGS). After 48 hours, cells were serum starved with serum free M200 media for 1 hour and stimulated with VEGF (10 ng/mL) for different time points ranging from 0 to 30 minutes. Next cells were lysed and used for western blot analysis to measure PLCγ and ERK1/2 activation. […] No effect of SHD overexpression on VEGF induced ERK1/2 activation was observed. Flag tagged SHD expression in HUVECs were confirmed by detecting Flag in the lysate

Data set [5] has as its system HUVEC. Briefly: HUVEC tube formation on matrigel after SHD overexpression. To be noted: HUVECs with VEGF on growth factor reduced matrigel, 16 hours, compared to control. As to the method: In addition to PLCγ signaling, the effect of SHD overexpression on HUVEC tube formation in vitro was also assessed. Endothelial cells reorganize themselves in a 3D matrix like matrigel and form tubes which is an index of in vitro angiogenesis. After 48 hours, cells were cultured at a constant number (10^4 cells/well) with VEGF on growth factor reduced matrigel (30 uL) coated 96 well plate and incubated for 16 hours.

Data set [6] concerns ERK1/2. Put plainly: VEGF induced ERK1/2 activation in HUVEC infected with SHD-Flag lentivirus. To be noted: lentivirus overexpression, VEGF 10 ng/mL. As to the method: as §4, §5

Take “GIT1 siRNA: siRNA AAGCTGCCAAGAAGAAGCTAC (SEQ ID NO: 21), synthesized (Ambion) (listed as DNA, chemistry not given here)”: the Notch1 expression result in data set [1] was “no change”. Moreover, in data set [1] (normalized to total Notch1), the “enhancement of expression of N1-ICD” value is given as 1.7±0.4 fold. For the same molecule, in data set [2], the “increase of Hey1 mRNA expression” value stood at 5.2±0.57 fold and the “increase of Hey1 protein expression” value is reported as 3.0±0.3 fold. For the same molecule, in data set [3], the “increase of Dll4 mRNA expression” value came out at 3.2±0.6 fold and the “increase of Dll4 protein expression” value was determined as 6.3±0.3 fold.

B1: SHD-Flag: flag-tagged SHD domain of GIT1 (residues 250-420 of SEQ ID NO: 1) cloned into a lentivirus vector (protein, listed as Homo sapiens)
chain: QMADSLDLSELAKAAKKKLQALSNRLFEELAMDVYDEVDRRENDAVWLATQNHSTLVTERSAVPFLPVNPEYSATRNQGRQKLARFNAREFATLIIDILSEAKRRQQGKSLSSPTDNLELSLRSQSDLDDQHDYDSVASDEDTDQEPLRSTGATRSNRARSMDSSDLSDGA
modifications: Flag tag; lentivirus vector
For B1, the “VEGF induced PLCγ activation” value in data set [4] is “blocked VEGF induced PLCγ activation”. For the same molecule, the “formation of tube-like structures” value in data set [5] is “inhibited the formation of tube-like structures”. The “VEGF induced ERK1/2 activation” value in data set [6] is “No effect”.
